# Reference: PubChem BioAssay AID1205 (EPA DSSTox, 2008)
# Active and inactive are the calls of the source.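 The calls were made as follows: active = tumour findings in long-term animal cancer tests in more than one sex, species or organ; inactive = no tumour finding and more than one negative test.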
# Assay: DSSTox (CPDBAS) Carcinogenic Potency Database Summary MultiCellCall Results
# Settings: animal carcinogenicity bioassays, multi-cell call summary
# In short: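 ActivityScore sums 50 for multispecies, 30 for multisex and 20 for multisite positivity. Based on the most positive experiment per sex-species across standardised chronic rodent and other animal cancer tests.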
row,SMILES,outcome
1,C=O,active; multisite active; multisex active; multispecies active
2,S=C(SSSSSSC(=S)N1CCCCC1)N1CCCCC1,inactive; multisex inactive
3,O=C1NCCN1,inactive; multisex inactive
4,Cc1[nH]cnc1CSCCN=C(NC#N)N(C)N=O,inactive; multisex inactive; multispecies inactive
5,FC(F)(F)CCl,active; multisite active; multisex active
6,CNCCc1ccc(OC(=O)C(C)C)c(OC(=O)C(C)C)c1,inactive; multisex inactive
7,C=CCNNCC=C,active; multisex active
8,CCC[CH2][Sn]([CH2]CCC)([CH2]CCC)[O][Sn]([CH2]CCC)([CH2]CCC)[CH2]CCC,inactive; multisex inactive
9,CC1(C)[C@@H](OC2O[C@H](C(=O)O)[C@@H](O)[C@H](O)[C@H]2O[C@H]2O[C@H](C(=O)O)[C@@H](O)[C@H](O)[C@H]2O)CC[C@]2(C)[C@H]3C(=O)C=C4[C@@H]5C[C@@](C)(C(=O)O)CC[C@]5(C)CC[C@@]4(C)[C@]3(C)CC[C@@H]12 (some centres not stated),inactive; multisex inactive
10,ClC(Cl)Br,active; multisite active; multisex active; multispecies active
11,[N-]=[N+]=[N-],inactive; multisex inactive
12,O=NN(CCCC(F)(F)F)CCCC(F)(F)F,active; multisite active; multisex active
13,O=S(=O)(O)c1cc(S(=O)(=O)O)c2c(N=Nc3ccccc3)c(O)ccc2c1,inactive; multisex inactive; multispecies inactive
14,CCCCCCCCCCCN(C)N=O,active; multisite active
15,O=NN(CC(=O)O)CC(=O)O,inactive; multisex inactive
16,COC(=O)C(c1ccccc1)C1CCCCN1 (configuration not stated),active; multisex active
17,Nc1ncn([C@@H]2O[C@H](CO)[C@@H](O)[C@H]2O)c(=O)n1,active; multisite active; multisex active; multispecies active
18,F[B-](F)(F)F,inactive; multisex inactive
19,O=NN1CCCCCCC1,active; multisite active
20,CNC(=O)Oc1cccc2c1OC(C)(C)C2,inactive; multisex inactive
21,Cc1ccccc1OCC(O)CNCCn1cc(C)c(=O)[nH]c1=O (configuration not stated),inactive; multisex inactive
22,O=S1OCC2C(CO1)C1(Cl)C(Cl)=C(Cl)C2(Cl)C1(Cl)Cl (configuration not stated),inactive; multisex inactive; multispecies inactive
23,O=S(=O)(c1ccc(Cl)cc1)c1ccc(Cl)cc1,inactive; multisex inactive; multispecies inactive
24,Oc1ccc(O)cc1,active; multisite active; multisex active; multispecies active

row,SMILES,outcome
1,C=CCNN,active; multisite active; multisex active
2,NNCCc1ccccc1,active; multisite active
3,CC(Cc1ccccc1)NN (configuration not stated),inactive; multisex inactive
4,N[C@@H](CS)C(=O)O,inactive; multisex inactive
5,CC[C@H]1OC(=O)C[C@@H](O)[C@H](C)[C@@H](O[C@@H]2O[C@H](C)[C@@H](O[C@H]3C[C@@](C)(O)[C@@H](O)[C@H](C)O3)[C@H](N(C)C)[C@H]2O)[C@@H](CC=O)C[C@@H](C)C(=O)/C=C/C(C)=C/C1CO[C@@H]1O[C@H](C)[C@@H](O)[C@@H](OC)[C@H]1OC (some centres not stated),inactive; multisex inactive
6,Clc1ccc2c(c1)Oc1ccc(Cl)cc1O2,inactive; multisex inactive; multispecies inactive
7,CN(N)C=O,active; multisite active; multisex active; multispecies active
8,CC1(C)COC1=O,active; multisex active
9,NC(N)=NC(N)=NCCc1ccccc1,inactive; multisex inactive; multispecies inactive
10,CCn1nc(C)c2c1C(c1ccccc1)=NCC(=O)N2,active; multisex active
11,CN(N=O)c1ncnc2c1ncn2[C@@H]1O[C@H](CO)[C@@H](O)[C@H]1O,active; multisite active; multisex active
12,CBr,inactive; multisex inactive; multispecies inactive
13,ClC(Cl)C(Cl)Cl,active; multisex active
14,O=C1CCCCCN1,inactive; multisex inactive; multispecies inactive
15,O=C1O[C@@H](CN2CCOCC2)CN1/N=C/c1ccc([N+](=O)[O-])o1,active; multisite active
16,O=C(CCl)c1ccccc1,inactive; multisex inactive; multispecies inactive
17,CCN(CC)C(=S)[S-].CCN(CC)C(=S)[S-].[Cd+2],inactive; multisex inactive
18,OCC1CO1 (configuration not stated),active; multisite active; multisex active; multispecies active
19,C=CCN(CC(O)CO)N=O (configuration not stated),active; multisite active
20,Nc1ccc(Sc2ccc(N)cc2)cc1,active; multisite active; multisex active; multispecies active
21,Nc1ccc2ccccc2c1,active; multisite active; multisex active; multispecies active
22,CC(C)OC(=O)Nc1cccc(Cl)c1,inactive; multisex inactive; multispecies inactive
23,O=C(NCC1CCCCN1)c1cc(OCC(F)(F)F)ccc1OCC(F)(F)F (configuration not stated),inactive; multisex inactive; multispecies inactive
24,c1ccc2c(c1)[nH]c1ccccc12,active; multisite active; multisex active

row,SMILES,outcome
1,CN[C@@H](C)[C@H](O)c1ccccc1,inactive; multisex inactive; multispecies inactive
2,O=P(OC(CCl)CCl)(OC(CCl)CCl)OC(CCl)CCl,active; multisite active; multisex active
3,NCCCC(N)(C(=O)O)C(F)F (configuration not stated),inactive; multisex inactive
4,Cc1cccc(Nc2cc(Cl)nc(SCC(=O)NCCO)n2)c1C,active; multisex active; multispecies active
5,CCCCCN(N=O)C(N)=O,active; multisite active; multisex active
6,O=c1cc[nH]c(=O)[nH]1,active; multisex active; multispecies active
7,C/C=C(/C)C(=O)O[C@H]1CCN2CC=C(COC(=O)[C@](O)([C@H](C)OC)C(C)(C)O)[C@H]12,active; multisite active; multisex active
8,CN(C)C(=S)S,inactive; multisex inactive
9,CCN(N=O)C(=O)NCC(C)=O,active; multisite active; multisex active; multispecies active
10,CCCCCCCCCCCCCCCC(=O)OC/C=C(C)/C=C/C=C(C)/C=C/C1=C(C)CCCC1(C)C,inactive; multispecies inactive
11,COc1ccc(C(c2ccc(OC)cc2)C(Cl)(Cl)Cl)cc1,inactive; multisex inactive; multispecies inactive
12,CCNC(=O)N(CCN(C)C)N=O,active; multisite active
13,CC(Oc1c(Cl)cccc1Cl)C1=NCCN1 (configuration not stated),inactive; multisex inactive
14,O=[N+]([O-])c1cccc2ccccc12,inactive; multisex inactive; multispecies inactive
15,[S-]c1nc2ccccc2s1.[S-]c1nc2ccccc2s1.[Zn+2],inactive; multisex inactive
16,COc1c(Cl)c(Cl)c([N+](=O)[O-])c(Cl)c1Cl,inactive; multisex inactive; multispecies inactive
17,C=CCc1ccc(OC)c(OC)c1,active; multisite active; multisex active; multispecies active
18,CCNN,active; multisite active; multisex active
19,Oc1ccccc1,inactive; multisex inactive; multispecies inactive
20,ClCC(Cl)(Cl)Cl,active; multisex active
21,O=C1OC(=O)c2ccccc21,inactive; multisex inactive; multispecies inactive
22,C=CCOc1ccc(CC(=O)O)cc1Cl,inactive; multisex inactive
23,ClC(Cl)=C(Cl)c1c(Cl)c(Cl)c(Cl)c(Cl)c1Cl,inactive; multisex inactive; multispecies inactive
24,O=[As]O,inactive; multispecies inactive
